Source: publication PMC4023990, “Characterization of the RnfB and RnfG Subunits of the Rnf Complex from the Archaeon Methanosarcina acetivorans” (PLoS ONE, 2014)

Columns and labels:
RnfG [1] = molecular target: T1, RnfG (Methanosarcina acetivorans, UniProt Q8TSY2, T166G); test: protein colour and UV fluorescence of the purified variant; assay type: binding; settings: removal of the covalent FMN attachment residue
T1 construct: full-length membrane subunit with C-terminal His6 tag (vector leader removed), made in E. coli LMG194, purified from membranes in dodecyl maltoside; isolated subunit of the Rnf complex
T1 sequence (Q8TSY2 whole entry T166G): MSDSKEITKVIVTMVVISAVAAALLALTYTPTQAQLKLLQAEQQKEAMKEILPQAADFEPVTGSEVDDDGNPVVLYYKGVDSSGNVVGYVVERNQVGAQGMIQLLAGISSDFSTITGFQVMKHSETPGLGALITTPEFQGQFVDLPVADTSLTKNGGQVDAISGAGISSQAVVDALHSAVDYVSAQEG

RnfG [2] = molecular target: T2, RnfG (Methanosarcina acetivorans, UniProt Q8TSY2); test: UV-visible absorbance of purified protein; UV fluorescence in SDS-PAGE gel; boiling and TCA treatment; assay type: binding; settings: covalent (flavin assigned as FMN, attached at Thr166); 25 µM protein, 25 mM Tris-HCl pH 8
T2 construct: full-length membrane subunit with C-terminal His6 tag (vector leader removed), made in E. coli LMG194, purified from membranes in dodecyl maltoside; isolated subunit of the Rnf complex
T2 sequence (Q8TSY2 whole entry): as the sequence (Q8TSY2 whole entry T166G) above, with G166T counted along it

molar ratio of flavin (RnfG [2]): 0.84 mol/mol
Structure (SMILES): Cc1cc2nc3c(=O)[nH]c(=O)nc-3n(C[C@H](O)[C@H](O)[C@H](O)COP(=O)(O)O)c2cc1C [FMN]
colour and fluorescence (RnfG [1]): The purified variant was colorless and failed to fluoresce under UV illumination
